Laboratory results: patent US12180226B2, “Spirotricycle RIPK1 inhibitors and methods of uses thereof” (Merck Sharp & Dohme LLC, priority 2021, dated 2024)
Counter-ions that a name gives are not always drawn.

Target: RIPK1 (recombinant GST-RIPK1 kinase domain, residues 1-327) (Homo sapiens (Human), UniProt Q13546)
Assay: RIPK1-ADP-Glo Enzymatic Assay
Format: biochemical
Conditions: ADP-Glo; 25 nM GST-RIPK1, 300 μM ATP; assay lower limit ~25 nM; read-out: RIPK1 V0 Ec50
How it was run: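 Compounds titrated 10-pt 1:3 from 100000 nM top (1% DMSO); 30 min preinc w/ 25 nM Sf21-expressed enzyme, RT; start w/ ATP (300 μM final) + dephos-MBP (3 μM); 150 min; ADP-Glo lumi; 4-param fit → EC50.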

RIPK1 (recombinant GST-RIPK1 kinase domain, residues 1-327), sequence (Q13546 1-327): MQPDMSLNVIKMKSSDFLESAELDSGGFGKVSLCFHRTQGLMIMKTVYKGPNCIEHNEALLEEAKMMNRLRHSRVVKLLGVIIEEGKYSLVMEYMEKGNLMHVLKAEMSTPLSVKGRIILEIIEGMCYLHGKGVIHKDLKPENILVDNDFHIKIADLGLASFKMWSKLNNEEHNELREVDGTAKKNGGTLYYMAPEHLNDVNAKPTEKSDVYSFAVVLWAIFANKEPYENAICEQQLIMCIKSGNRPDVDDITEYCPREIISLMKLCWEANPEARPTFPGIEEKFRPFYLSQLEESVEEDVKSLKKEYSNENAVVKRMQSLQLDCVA

Q: For `CC(C)(C)OC(=O)/C=C/c1ccc(N2CCC3(CC2)O[C@@H]2CC[C@@H](c4ccccc4)N2C3=O)nc1` [Example 4.163, tert-butyl (2E)-3-{6-[(5′S,7a′R)-3′-oxo-5′-phenyltetrahydro-1H,3′H-spiro[piperidine-4,2′-pyrrolo[2,1-b] [1,3]oxazol]-1-yl]pyridin-3-yl}prop-2-enoate], which EC50 is on record?
A: 30.3 nM

Q: For `O=C(Nc1ccccc1)N1CCC2(CC1)O[C@@H]1CC[C@@H](c3cc(F)cc(F)c3)N1C2=O` [Example 12.1, (5′S,7a′R)-5′-(3,5-Difluorophenyl)-3′-oxo-N-phenyltetrahydro-3′H-spiro[piperidine-4,2′-pyrrolo[2,1-b]oxazole]-1-carboxamide], which EC50 is on record?
A: 537 nM

Q: Which EC50 does the source give for `O=C(c1cc2ccccc2o1)N1CCC2(CC1)O[C@@H]1CC[C@@H](c3cc(F)cc(F)c3)N1C2=O` [Example 5.69] here?
A: 45.3 nM

Q: With `Cc1nc(Cl)c(C)c(N2CCC3(CC2)O[C@@H]2CC[C@@H](c4ccccc4)N2C3=O)n1` [Example 4.22, (5′S,7a′R)-1-(6-chloro-2,5-dimethylpyrimidin-4-yl)-5′-phenyltetrahydro-3′H-spiro[piperidine-4,2′-pyrrolo[2,1-b] [1,3]oxazol]-3′-one] as the molecule, how does the EC50 read?
A: 26.9 nM

Q: How did the EC50 turn out when `COc1cncc(C(=O)N2CCC3(CC2)O[C@@H]2CC[C@@H](c4cc(F)cc(F)c4)N2C3=O)n1` [Example 6.41, (5′S,7a′R)-5′-(3,5-difluorophenyl)-1-(6-methoxypyrazine-2-carbonyl)tetrahydro-3′H-spiro[piperidine-4,2′-pyrrolo[2,1-b] [1,3]-oxazol]-3′-one] was run?
A: 131 nM

Q: For `Cc1onc(C(=O)N2CCC3(CC2)O[C@@H]2CC[C@@H](c4cc(F)cc(F)c4)N2C3=O)c1C` [Example 6.57, (5′S,7a′R)-5′-(3,5-difluorophenyl)-1-(4,5-dimethyl-1,2-oxazole-3-carbonyl) tetrahydro-3′H-spiro [piperidine-4,2′-pyrrolo[2,1-b][1,3]-oxazol]-3′-one], which EC50 is on record?
A: 426 nM

Q: `O=C(c1ccccc1F)N1CCC2(CC1)O[C@@H]1CC[C@@H](c3ccccc3)N1C2=O` [Example 1.10, (5′S,7a′R)-1-(2-fluorobenzene-1-carbonyl)-5′-phenyltetrahydro-3′H-spiro[piperidine-4,2′-pyrrolo[2,1-b] [1,3]oxazol]-3′-one] was tested. Which EC50 did it give?
A: < 25 nM

Q: With `O=C(c1ccsc1-c1ncccn1)N1CCC2(CC1)O[C@@H]1CC[C@@H](c3cc(F)cc(F)c3)N1C2=O` [Example 6.36, (5′S,7a′R)-5′-(3,5-difluorophenyl)-1-[2-(pyrimidin-2-yl)thio-phene-3-carbonyl] tetrahydro-3′H-spiro [piperidine-4,2′-pyrrolo[2,1-b][1,3]oxazol]-3′-one] as the molecule, how does the EC50 read?
A: 851 nM

Q: With `O=C(c1ccccc1)N1CCC2(O[C@@H]3CC[C@@H](c4ccccc4)N3C2=O)C(F)C1` (single isomer, unassigned) [Example 2.2, (3[R or S],4[S or R], 5′S,7a′R)-1-benzoyl-3-fluoro-5′-phenyltetrahydro-3′H-spiro[piperidine-4,2′-pyrrolo[2,1-b]oxazol]-3′-one] as the molecule, how does the EC50 read?
A: < 25 nM

Q: With `CC1CN(c2cccc3ncnn23)CCC12O[C@@H]1CC[C@@H](c3cc(F)cc(F)c3)N1C2=O` (stereo partly drawn) [Example 4.265, (5′S,7a′R)-5′-(3,5-difluorophenyl)-3-methyl-1-([1,2,4]triazolo[1,5-a]pyridin-5-yl)tetrahydro-3′H-spiro[piperidine-4,2′-pyrrolo[2,1-b] [1,3]oxazol]-3′-one] as the molecule, how does the EC50 read?
A: 28.4 nM

Q: How did the EC50 turn out when `COc1nc(N2CCC3(CC2)O[C@@H]2CC[C@@H](c4ccccc4)N2C3=O)ncc1F` [Example 11.29, (5′S,7a′R)-1-(5-fluoro-4-methoxypyrimidin-2-yl)-5′-phenyltetrahydro-3′H-spiro[piperidine-4,2′-pyrrolo[2,1-b][1,3]oxazol]-3′-one] was run?
A: < 25 nM

Q: Which EC50 does the source give for `O=C1N2[C@@H](CC[C@H]2c2ccccc2)OC12CCN(c1ccnc(-c3ccccc3)n1)CC2` [Example 11.14, (5′S,7a′R)-5′-phenyl-1-(2-phenylpyrimidin-4-yl)tetrahydro-3′H-spiro[piperidine-4,2′-pyrrolo[2,1-b][1,3]oxazol]-3′-one] here?
A: 33.7 nM

Q: With `N#Cc1ccnc(N2CCC3(CC2)O[C@@H]2CC[C@@H](c4cc(F)cc(F)c4)N2C3=O)c1` [Example 4.8, 2-[(5′S,7a′R)-5′-(3,5-difluorophenyl)-3′-oxotetrahydro-1H,3′H-spiro[piperidine-4,2′-pyrrolo[2,1-b] [1,3]oxazol]-1-yl]pyridine-4-carbonitrile] as the molecule, how does the EC50 read?
A: < 25 nM

Q: With `O=C1N2[C@@H](CC[C@H]2c2ccccc2)OC12CCN(c1cc(F)ccn1)CC2` [Example 4.14, (5′S,7a′R)-1-(4-fluoropyridin-2-yl)-5′-phenyltetrahydro-3′H-spiro[piperidine-4,2′-pyrrolo[2,1-b] [1,3]oxazol]-3′-one] as the molecule, how does the EC50 read?
A: < 25 nM

Q: How did the EC50 turn out when `O=C1N2[C@@H](CC[C@H]2c2ccccc2)OC12CN(c1ccc(C3CCC3)c3ccnn13)C2` [Example 18.3, (5′S,7a′R)-1-(4-cyclobutylpyrazolo[1,5-a]pyridin-7-yl)-5′-phenyltetrahydro-3′H-spiro[azetidine-3,2′-pyrrolo[2,1-b][1,3]oxazol]-3′-one] was run?
A: < 25 nM

Q: How did the EC50 turn out when `COc1cc(N2CCC3(CC2)O[C@@H]2CC[C@@H](c4cc(F)cc(F)c4)N2C3=O)ncc1C#N` [Example 4.43, 6-[(5′S,7a′R)-5′-(3,5-difluorophenyl)-3′-oxotetrahydro-1H,3′H-spiro[piperidine-4,2′-pyrrolo[2,1-b] [1,3]oxazol]-1-yl]-4-methoxypyridine-3-carbonitrile] was run?
A: < 25 nM

Q: Which EC50 does the source give for `O=C1N2[C@@H](CC[C@H]2c2ccccc2)OC12CCN(c1ccc(-c3cscn3)c3ncnn13)CC2` [Example 21.19, (5′S,7a′R)-5′-phenyl-1-[8-(1,3-thiazol-4-yl)[l,2,4]triazolo[1,5-a]pyridin-5-yl]tetrahydro-3′H-spiro[piperidine-4,2′-pyrrolo[2,1-b][1,3]oxazol]-3′-one] here?
A: < 25 nM

Q: How did the EC50 turn out when `O=C1N2[C@@H](CC[C@H]2c2ccccc2)OC12CCN(c1ccc(=O)n(CC3CC3)n1)CC2` [Example 11.8, (5′S,7a′R)-1-[1-(cyclopropylmethyl)-6-oxo-1,6-dihydropyridazin-3-yl]-5′-phenyltetrahydro-3′H-spiro[piperidine-4,2′-pyrrolo[2,1-b][1,3]oxazol]-3′-one] was run?
A: 215 nM

Q: `Cc1nc(N2CCC3(CC2)O[C@@H]2CC[C@@H](c4ccccc4)N2C3=O)sc1C` [Example 11.32, (5′S,7a′R)-1-(4,5-dimethyl-1,3-thiazol-2-yl)-5′-phenyltetrahydro-3′H-spiro[piperidine-4,2′-pyrrolo[2,1-b][1,3]oxazol]-3′-one] was tested. Which EC50 did it give?
A: 319 nM

Q: With `COc1cccc(C(=O)N2CCC3(CC2)O[C@@H]2CC[C@@H](c4ccccc4)N2C3=O)c1` [Example 6.155, (5′S,7a′R)-1-(3-methoxybenzene-1-carbonyl)-5′-phenyl-tetrahydro-3′H-spiro [piperidine-4,2′-pyrrolo[2,1-b][1,3]oxazol]-3′-one] as the molecule, how does the EC50 read?
A: < 25 nM

Q: How did the EC50 turn out when `Cc1ncc([C@@H]2CC[C@H]3OC4(CCN(C(=O)c5ccccc5)CC4F)C(=O)N32)cc1F` (stereo partly drawn) [Example 2.9, (5′S,7a′R)-1-(benzenecarbonyl)-3-fluoro-5′-(5-fluoro-6-methylpyridin-3-yl)tetrahydro-3′H-spiro[piperidine-4,2′-pyrrolo[2,1-b][1,3]oxazol]-3′-one] was run?
A: 106 nM

Q: `CC(C)NC(=O)c1nc(N2CCC3(CC2)O[C@@H]2CC[C@@H](c4cc(F)cc(F)c4)N2C3=O)ncc1F` [Example 7.14, 2-[(5′S,7a′R)-5′-(3,5-difluorophenyl)-3′-oxotetrahydro-1H,3′H-spiro[piperidine-4,2′-pyrrolo[2,1-b][1,3]oxazol]-1-yl]-5-fluoro-N-(propan-2-yl)pyrimidine-4-carboxamide] was tested. Which EC50 did it give?
A: 69.8 nM

Q: For `O=C(c1ccon1)N1CCC2(CC1)O[C@@H]1CC[C@@H](c3cc(F)cc(F)c3)N1C2=O` [Example 5.45], which EC50 is on record?
A: 31 nM

Q: `O=C1N2[C@@H](CC[C@H]2c2ccccc2)OC12CCN(c1ncc(-c3cocn3)cc1F)CC2` [Example 21.6, (5′S,7a′R)-1-[3-fluoro-5-(1,3-oxazol-4-yl)pyridin-2-yl]-5′-phenyltetrahydro-3′H-spiro[piperidine-4,2′-pyrrolo[2,1-b][1,3]oxazol]-3′-one] was tested. Which EC50 did it give?
A: < 25 nM

Q: Which EC50 does the source give for `N#Cc1ccc(C(=O)N2CCC3(CC2)O[C@@H]2CC[C@@H](c4cc(F)cc(F)c4)N2C3=O)cc1` [Example 5.21, 4-((5′S,7a′R)-5′-(3,5-difluorophenyl)-3′-oxo-tetrahydro-3′H-spiro [piperidine-4,2′-pyrrolo-[2,1-b]oxazole]-1-carbon-yl)benzonitrile] here?
A: 342 nM

Q: `O=C1N2[C@@H](CC[C@H]2c2ccccc2)OC12CCN(c1ccc(-c3cc(O)no3)cn1)CC2` [Example 4.193, (5′S,7a′R)-1-[5-(3-hydroxy-1,2-oxazol-5-yl)pyridin-2-yl]-5′-phenyltetrahydro-3′H-spiro[piperidine-4,2′-pyrrolo[2,1-b] [1,3]oxazol]-3′-one] was tested. Which EC50 did it give?
A: < 25 nM

Q: `O=C1N2[C@@H](CC[C@H]2c2cc(F)cc(F)c2)OC12CCN(c1cccc3ccnn13)CC2` [Example 15.2, (5′S,7a′R)-5′-(3,5-difluorophenyl)-1-(pyrazolo[1,5-a]pyridin-7-yl)tetrahydro-3′H-spiro[piperidine-4,2′-pyrrolo[2,1-b]oxazol]-3′-one, TFA] was tested. Which EC50 did it give?
A: < 25 nM
